Reference: patent publication EP3409671B1, “ISOTHIAZOLE DERIVATIVES AS GPR120 AGONISTS FOR THE TREATMENT OF TYPE II DIABETES” (Janssen Pharmaceutica NV, priority 2014, dated 2015)

Test system: C57b1/6J Mice
Experiment: GPR120 C57bl6 Mouse IPGTT
Format: in vivo
Design: C57 IPGTT 10mg/kg: unit not given here
Conditions: for C57 IPGTT 10mg/kg: 10mg/kg dosed 30 minutes prior to glucose IP 1.5g/kg; for C57 IPGTT 3mg/kg: 3mg/kg dosed 30 minutes prior to glucose IP 1.5g/kg
Method: Male, C57b1/6J Mice were ordered in at 8 weeks of age from Jackson Labs. Individual mice weighed anywhere in the range of 25-30 grams on study day. The mice were fasted, with removal of food occurring at 7am on the morning of the study. Animals were moved into the room at 10:00am, to give them time to acclimate. Glucose (insulin syringes) was drawn up either the night before or the morning of the study. Glucose was dosed (IP) at 1.5g/kg at 7.5ml/kg (20% glucose straight TEKNOVA, 250ml sterile bottle w/ catalogue number G0525). Test compounds were kept spinning and were only drawn into the syringes prior to study commencement. Animals were bled via tail snip to determine basal glucose levels prior to dosing of treatments. An Ascensia BREEZE Blood Glucose Monitoring System by Bayer (using unique 10-test disks) was used for determining glucose levels. The bleeds started at approximately 12:45pm and dosing started, at 1-minute intervals, immediately after. All groups were dosed 30 minutes prior to glucose administration at a dose volume of 10ml/kg (the dose volume was calculated separately for each individual animal). Thirty minutes after the first dose animals were bled again for a second baseline, or T=0, and immediately dosed with glucose via an i.p. injection. The exact dose volume for glucose was also calculated separately for each individual animal. Glucose measurements were taken at -30min prior to compound dose, at t=0 (immediately prior to glucose dose), and at 15, 30, 45, 60, 90min post glucose dose.
Glucose values were entered into an Excel sheet and graphed in GraphPad Prism. The following were calculated from Prism: Change from -30 to 0 BSLN Glucose, Raw Glucose AUC -30 to 90min, Delta Glucose AUC -30 to 90min, Raw Glucose AUC 0 to 90min, Delta Glucose AUC 0 to 90min.
Representative compounds of the present disclosure were tested according to the procedures as described in Biological Example 4, above with results as listed in Table 3, below. […] Where a compound was tested more than once, each result is listed individually. Table 3: GPR120 C57bl6 Mouse IPGTT OGTT Results

Compound | C57 IPGTT 10mg/kg | C57 IPGTT 3mg/kg | C57 IPGTT 30mg/kg (30mg/kg dosed 30 minutes prior to glucose IP 1.5g/kg)
OCCCc1cc(F)c(OCc2c(-c3ccc(Cl)cc3)nsc2C(F)(F)F)c(F)c1 [Cpd 100, 3-(4-[[3-(4-chlorophenyl)-5-(trifluoromethyl)-1,2-thiazol-4-yl]methoxy]-3,5-difluorophenyl)propan-1-ol] | -42 |  | 
Cc1c(CCC(=O)O)ccc(OCc2c(-c3ccc(Cl)cc3)nsc2C(F)(F)F)c1C [Cpd 142, 3-(4-((3-(4-chlorophenyl)-5-(trifluoromethyl)isothiazol-4-yl)methoxy)-2,3-dimethylphenyl)propanoic acid] | -61 | -34 | 
O=C(O)CCc1cc(F)c(OCc2c(C3CCCC3)nsc2C(F)(F)F)c(F)c1 [Cpd 71, 3-(4-[[3-cyclopentyl-5-(trifluoromethyl)-1,2-thiazol-4-yl]methoxy]-3,5-difluorophenyl)propanoic acid] |  | -14 | 
CCc1ccc(-c2snc(Cl)c2COc2ccc(CCC(=O)O)c(C)c2C)cc1 [Cpd 85, 3-(4-[[3-chloro-5-(4-ethylphenyl)-1,2-thiazol-4-yl]methoxy]-2,3-dimethylphenyl)propanoic acid] | -48 | -29 | 
O=C(O)CCc1ccc(OCc2c(-c3ccc(Cl)cc3)nsc2C(F)(F)F)c(F)c1F [Cpd 106, 3-(4-[[3-(4-chlorophenyl)-5-(trifluoromethyl)-1,2-thiazol-4-yl]methoxy]-2,3-difluorophenyl)propanoic acid] | -34 |  | 
CCc1ccc(-c2nsc(C(F)(F)F)c2COc2c(F)cc(CCC(=O)O)cc2F)cc1 [Cpd 70, 3-(4-[[3-(4-ethylphenyl)-5-(trifluoromethyl)-1,2-thiazol-4-yl]methoxy]-3,5-difluorophenyl)propanoic acid] |  |  | -88
O=C(O)CCc1cc(F)c(OCc2c(-c3ccc(Cl)cc3)nsc2C(F)(F)F)c(F)c1 [Cpd 79, 3-(4-[[3-(4-chlorophenyl)-5-(trifluoromethyl)-1,2-thiazol-4-yl]methoxy]-3,5-difluorophenyl)propanoic acid] | -60 |  | 
